Assay results as given in patent US10753941B2, “Biocompatible nanoparticles with aggregation induced emission characteristics as fluorescent bioprobes and methods of using the same for in vitro and in vivo imaging” (The Hong Kong University of Science and Technology, priority 2011, dated 2020).
Read-outs that look alike come from different tables or passages of the source. Residues, ends and D or L forms follow the SMILES beside them. *: point of attachment. X1 = O=C(CCCc1cn(Cc2ccc(C(=C(c3ccccc3)c3ccccc3)c3ccccc3)cc2)nn1)*

What was measured:
[1] = Water solubility / aggregation of probes in water (LLS, PL); format: physicochemical; settings: for average diameter of nanoaggregates in water (LLS): DMSO/water v/v=1:199, 10 μM
Text: FIG. 32A illustrates the UV-vis absorption spectra of BATPS (5) and TPS-2cRGD. Both have a similar absorption profile with the maximum at 356 nm. The corresponding photoluminescence (PL) spectra are shown in FIG. 32B, along with the photographs taken under UV irradiation. It is known that AIE fluorogens are virtually non-fluorescent in good solvents but emit intensely when aggregated in poor solvents.
It is well known that AIE dye is virtually non-luminescent in good solvents but emits intensely when aggregated in its poor solvents. […] The excited states are readily annihilated by the intramolecular rotations of phenyl rings. Therefore, very low fluorescence was observed.

[2] = system: BSA, HSA, Lysozyme, Pepsin and Trypsin; test: Selectivity of AcDEVDK-TPE against other proteins; format: biochemical; settings: 20 μg mL^−1 protein, 5 μM probe
Procedure: AcDEVDK-TPE was treated with five other enzymes which are widely present in cells, such as BSA, HSA, Lysozyme, Pepsin and Trypsin under the same conditions.

HeLa cells = test: Apoptosis imaging in live cells with AcDEVDK-TPE; format: cell-based, human; settings: 5 μM probe
Procedure: The cells were cultured in the chambers (LAB-TEK, Chambered Coverglass System) at 37° C., respectively. After 80% confluence, the adherent cells were washed twice with 1×PBS buffer. The AcDEVD-TPE solution (5 μM, 0.3 mL) was then added to the chamber. After incubation for 2 h at 37° C., cells were washed two times with 1×PBS buffer. To induce apoptosis, cells were incubated with 1.0 μM of staurosporine for 1 hr and then imaged immediately by confocal laser scanning microscope (CLSM, Zeiss LSM 410, Jena, Germany) with imaging software (Fluoview FV500). The images are analyzed by ImageJ 1.43× program (developed by NIH).

caspase-3 [3] = molecular target: T1, caspase-3 (Homo sapiens, UniProt P42574); test: Caspase turn-on assay of AcDEVDK-TPE; format: biochemical
T1 construct: purchased R&D Systems
T1 sequence (P42574 29-175 limits assumed): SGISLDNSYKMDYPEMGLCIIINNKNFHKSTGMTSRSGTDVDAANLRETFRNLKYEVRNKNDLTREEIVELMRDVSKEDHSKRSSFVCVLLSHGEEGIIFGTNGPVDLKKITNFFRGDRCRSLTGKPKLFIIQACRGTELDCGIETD
T1 sequence (P42574 176-277 limits assumed): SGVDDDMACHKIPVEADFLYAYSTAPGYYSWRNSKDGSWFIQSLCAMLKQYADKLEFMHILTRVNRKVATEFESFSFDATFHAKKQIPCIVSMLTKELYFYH
Text: (§1) Cleavage of the peptide substrates AcDEVDK-TPE by caspase-3 or caspase-7 was monitored in quartz cells or in black flatbottom polypropylene 384-well plates (Nunc, USA). The corresponding concentrations of substrate and enzymes were used for each assay. Enzymatic cleavage of the substrates was monitored by fluorescence increase (excitation and emission wavelengths at 312 nm and 480 nm respectively) with on a Perkin-Elmer LS 55 spectrofluorometer or a Synergy TM 2 multi-mode microplate reader (Biotek Instruments).

caspase-7 = molecular target: T2, caspase-7 (Homo sapiens, UniProt P55210); test: Caspase turn-on assay of AcDEVDK-TPE; format: biochemical
T2 construct: purchased R&D Systems
T2 sequence (P55210 24-198 limits assumed): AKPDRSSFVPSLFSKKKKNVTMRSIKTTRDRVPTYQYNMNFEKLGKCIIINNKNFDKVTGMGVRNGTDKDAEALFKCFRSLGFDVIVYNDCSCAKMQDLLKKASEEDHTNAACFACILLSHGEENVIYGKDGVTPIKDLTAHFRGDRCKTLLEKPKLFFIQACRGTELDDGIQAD
T2 sequence (P55210 207-303 limits assumed): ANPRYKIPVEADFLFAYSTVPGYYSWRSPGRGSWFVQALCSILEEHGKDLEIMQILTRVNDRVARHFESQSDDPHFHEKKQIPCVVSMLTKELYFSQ
Text: as §1

MCF-7 cancer cells = test: Long term cellular tracking with two-photon fluorescence imaging; format: cell-based; settings: 1 μM, 4 h incubation; FTNPs two-photon 800 nm, MTR one-photon 560 nm
Procedure: The performance of FTNPs in MCF-7 cancer cell tracking was investigated and compared with that of commercial Mitotracker red (MTR).
MCF-7 breast cancer cells were cultured in Dulbecco's Modified Eagle Medium (DMEM) containing 10% fetal bovine serum and 1% penicillin streptomycin at 37° C. in a humidified environment containing 5% CO2.
Prior to the experiment, MCF-7 breast cancer cells were pre-cultured until confluence was reached. After incubation with FTNPs and Mitotracker red (MTR) in DMEM medium (FBS-free) at 1 μM T1 and MTR for 4 h at 37° C., respectively, the corresponding cells were detached by 1× tripsin and suspended in culture medium with different cell densities. The cells were then cultured on round coverslip in 35 mm petri dishes for 0, 1, 2, 3, 4 and 5 days, respectively. After designated time intervals, the medium was removed and the adherent cells were washed twice with 1×PBS buffer, followed by fixation using 75% ethanol for 20 minutes. The cells were further washed twice with 1×PBS buffer and the coverslips were then mounted on glass slides using mounting medium in purpose of long-term storage. […] The detection of two-photon excited fluorescence of FTNPs was achieved by excitation at 800 nm with a 600-800 nm bandpass filter. On the other hand, the one-photon excited fluorescence signal from MTR was collected with a 600-800 nm bandpass filter upon 560 nm excitation.

human integrin αvβ3 = molecular target: T3, human integrin αvβ3 (Homo sapiens, UniProt P05106+P06756); test: Titration of TPS-2cRGD with integrin (fluorescence turn-on); format: binding
T3 construct: purchased ImmunoCell
Procedure: (§2) 5 μL of the protein stock solution was diluted with 40 μL of 1×PBS buffer (pH 7.4). 5 μL of TPS-2cRGD (10 μM) was then added and the reaction mixture was incubated at room temperature for 30 min. The reaction mixture was then diluted to a total of 300 μL with deionized water for photoluminescence measurement. The solution was excited at 356 nm, and the emission was collected from 380 to 650 nm.

[4] = system: MCF7 breast cancer cells with low integrin αvβ3 expression; test: Confocal imaging at 4° C. with TPS-2cRGD; format: cell-based; settings: 2 μM, 30 min
Procedure: (§3) Before the detection of integrin αvβ3, HT-29 and MCF-7 cells were cultured in the chambers (LAB-TEK, Chambered Coverglass System) at 37° C., respectively. After 80% confluence, the adherent cells were washed twice with 1×PBS buffer. The TPS-2cRGD solution (2 μM, 0.3 mL) was then added to the chamber. After incubation for 30 min at 4° C., cells were washed two times with 1×PBS buffer and then treated with membrane tracker for 10 min and further washed twice with 1×PBS buffer. The cells were then imaged immediately by confocal laser scanning microscope (CLSM, Zeiss LSM 410, Jena, Germany) with imaging software (Fluoview FV500). The images are analyzed by ImageJ 1.43× program (developed by NIH). The images were taken upon excitation at 405 nm (5% laser power) with a band pass 505-525 nm filter for the probe, and 543 nm (5% laser power) with a band pass 575-635 nm filter for the membrane tracker.

[5] = system: HT-29 colon cancer cells with overexpressed integrin αvβ3; test: Confocal imaging at 4° C. with TPS-2cRGD; format: cell-based
Procedure: as §3

HT-29 cells = test: Real-time uptake imaging of TPS-2cRGD; format: cell-based; settings: 2 μM, room temperature
Procedure: HT-29 cells were cultured in the 8-wells chambers (LAB-TEK, Chambered Coverglass System) at 37° C. After 80% confluence, the adherent cells were washed twice with 1×PBS buffer. The TPS-2cRGD solution (2 μM, 0.3 mL) and a small amount of membrane tracker were then added to the chamber. The chambers were placed on the microscope platform immediately and the microscope focused on a collection of cells. The fluorescence images (405 nm excitation and with a band pass 505-525 nm filter for the probe, and 543 nm excitation with a band pass 575-635 nm filter for the membrane tracker) acquired every 5 min.

[6] = system: lysozyme, papain, trypsin and BSA; test: Titration of TPS-2cRGD with other proteins (selectivity); format: binding; settings: 100 μg mL^−1 protein
Procedure: as §2

[7] = MTT cytotoxicity of TPS-2cRGD; format: cell-based; settings: human, HT-29 cancer cells; 2, 5 and 10 μM for 12, 24 and 48 h; read-out: metabolic viability
Procedure: Methylthiazolyldiphenyl-tetrazolium (MTT) assays were used to assess the metabolic activity of HT-29 cancer cells to study the cytotoxicity of TPS-2cRGD. HT-29 cells were seeded in 96-well plates (Costar, Ill., USA) at an intensity of 4×10^4 cells mL^−1. After 24 h incubation, the medium was replaced by the TPS-2cRGD suspension at concentrations of 2, 5, and 10 μM, and the cells were then incubated for 12, 24 and 48 h, respectively. After the designated time intervals, the wells were washed twice with 1×PBS buffer and 100 μL of freshly prepared MTT (0.5 mg mL^−1) solution in culture medium was added into each well. The MTT medium solution was carefully removed after 3 h incubation in the incubator at 37° C. DMSO (100 μL) was then added into each well and the plate was gently shaken to dissolve all the precipitates formed. The absorbance of MTT at 570 nm was monitored by the microplate reader (Genios Tecan). Cell viability was expressed by the ratio of absorbance of the cells incubated with TPS-2cRGD suspension to that of the cells incubated with culture medium only.

caspase-3 [8] = molecular target: T1, caspase-3; test: Caspase-3 turn-on and hydrolysis of E/Z-TPE-2DEVD; format: biochemical; settings: for fluorescence turn-on with caspase-3: 10 μM probe, PIPES buffer, caspase-3 100 pM, 37° C.; for rate of enzyme activated hydrolysis (HPLC): recombinant caspase-3 in buffer
Procedure: Both have a similar absorption profile with an obvious absorbance in the 270-380 nm range.
The enzyme kinetic studies by incubating recombinant caspase-3 with E/Z-TPE-2DEVD in buffer at 37° C. were subsequently performed, and the changes in probe hydrolysis were monitored with HPLC. DMSO stock solutions of TPE-2DEVD were diluted with caspase-3assay buffer (50 mM PIPES, 100 mM NaCl, 1 mM EDTA, 0.1% w/v CHAPS, 25% w/v sucrose, pH=7.2) to make 10 μM working solutions. 5 μL of the recombinant caspase-3 (˜0.04 μg/μL stock solution in assay buffer) was added into the above working solution. The reaction mixture was incubated at room temperature for 60 min and was then diluted to a total of 300 μL with deionized water for photoluminescence measurement. The solution was excited at 312 nm, and the emission was collected from 360 to 600 nm.

[9] = system: caspase-3, pepsin, BSA, trypsin, papain and lysozyme; settings: protein 100 pM, identical conditions
Procedure: To further investigate the probe selectivity, Z-TPE-2DEVD was treated with several proteins, such as caspase-3, pepsin, BSA, trypsin, papain and lysozyme, under identical conditions.

[10] = inferred from weak fluorescence / LLS

T3 sequence (P06756 31-1048): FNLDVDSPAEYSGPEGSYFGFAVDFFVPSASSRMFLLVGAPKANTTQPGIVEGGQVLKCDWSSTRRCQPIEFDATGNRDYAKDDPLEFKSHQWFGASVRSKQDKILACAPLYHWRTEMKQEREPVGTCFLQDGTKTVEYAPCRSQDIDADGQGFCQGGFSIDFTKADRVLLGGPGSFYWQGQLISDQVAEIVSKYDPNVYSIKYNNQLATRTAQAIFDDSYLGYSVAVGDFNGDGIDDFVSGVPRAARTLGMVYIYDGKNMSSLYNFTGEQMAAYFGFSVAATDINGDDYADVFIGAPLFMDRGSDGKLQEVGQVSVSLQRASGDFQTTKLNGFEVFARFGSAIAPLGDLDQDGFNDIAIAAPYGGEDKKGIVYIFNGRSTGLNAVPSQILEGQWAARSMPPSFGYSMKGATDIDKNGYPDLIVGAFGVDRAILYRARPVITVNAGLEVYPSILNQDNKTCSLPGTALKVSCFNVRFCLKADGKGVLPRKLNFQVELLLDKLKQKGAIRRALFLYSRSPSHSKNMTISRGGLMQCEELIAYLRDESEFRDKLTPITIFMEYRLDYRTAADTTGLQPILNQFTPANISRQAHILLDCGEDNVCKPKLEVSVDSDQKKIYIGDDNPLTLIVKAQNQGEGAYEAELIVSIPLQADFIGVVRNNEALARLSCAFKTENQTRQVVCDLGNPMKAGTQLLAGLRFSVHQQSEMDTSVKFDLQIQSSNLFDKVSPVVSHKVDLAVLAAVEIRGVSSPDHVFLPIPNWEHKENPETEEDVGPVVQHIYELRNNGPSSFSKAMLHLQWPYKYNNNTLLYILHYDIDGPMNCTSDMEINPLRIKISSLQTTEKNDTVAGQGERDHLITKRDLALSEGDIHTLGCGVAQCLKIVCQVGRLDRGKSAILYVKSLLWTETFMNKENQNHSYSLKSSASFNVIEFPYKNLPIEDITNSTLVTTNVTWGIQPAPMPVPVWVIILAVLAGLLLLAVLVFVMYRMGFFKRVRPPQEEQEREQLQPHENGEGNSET
T3 sequence (P05106 27-788): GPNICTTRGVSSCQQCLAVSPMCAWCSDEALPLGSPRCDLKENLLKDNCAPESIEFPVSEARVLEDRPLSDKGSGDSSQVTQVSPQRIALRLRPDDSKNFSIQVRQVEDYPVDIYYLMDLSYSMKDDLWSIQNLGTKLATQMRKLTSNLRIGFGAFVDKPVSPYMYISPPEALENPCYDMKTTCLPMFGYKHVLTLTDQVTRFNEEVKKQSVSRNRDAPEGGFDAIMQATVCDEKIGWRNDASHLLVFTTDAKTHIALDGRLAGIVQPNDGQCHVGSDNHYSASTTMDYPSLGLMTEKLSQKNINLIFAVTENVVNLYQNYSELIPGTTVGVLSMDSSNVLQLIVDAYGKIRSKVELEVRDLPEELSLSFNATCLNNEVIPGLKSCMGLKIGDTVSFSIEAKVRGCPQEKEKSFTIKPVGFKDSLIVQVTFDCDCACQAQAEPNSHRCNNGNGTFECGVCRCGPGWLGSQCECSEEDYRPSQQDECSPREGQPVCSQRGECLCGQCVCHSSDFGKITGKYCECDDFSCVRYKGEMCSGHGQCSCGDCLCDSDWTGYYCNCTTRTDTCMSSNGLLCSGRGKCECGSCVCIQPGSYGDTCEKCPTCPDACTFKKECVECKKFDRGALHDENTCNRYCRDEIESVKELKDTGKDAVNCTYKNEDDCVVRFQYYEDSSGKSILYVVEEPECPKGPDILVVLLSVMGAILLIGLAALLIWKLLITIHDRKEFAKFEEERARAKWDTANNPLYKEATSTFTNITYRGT

CC(=O)N[C@@H](CC(=O)O)C(=O)N[C@@H](CCC(=O)O)C(=O)N[C@H](C(=O)N[C@@H](CC(=O)O)C(=O)N[C@@H](CCCCNC(=O)CCCc1cn(Cc2ccc(C(=C(c3ccccc3)c3ccccc3)c3ccccc3)cc2)nn1)C(N)=O)C(C)C [AcDEVDK-TPE] (Ac-DEVDK(X1)-NH2)
solubility in water [1]: good solubility in water
change of PL intensity with other proteins [2]: very little change of PL intensity
fluorescence in nonapoptotic cells (HeLa cells): very weak green fluorescence
fluorescence in apoptotic cells (HeLa cells; apoptosis induced with staurosporine): strong green fluorescence
fluorescence on incubation with caspase-3 (caspase-3 [3]; 0 to 120 min): time-dependent increase in fluorescence
fluorescence enhancement with caspase-3 (caspase-3 [3]; 5 μM probe, 200 pM caspase-3): up to ten-fold fluorescence enhancement
fluorescence with caspase-3 pretreated with inhibitor (caspase-3 [3]; 10 μM caspase inhibitor): no fluorescence turn-on
fluorescence on incubation with caspase-7 (caspase-7; 0 to 120 min): time-dependent increase in fluorescence
fluorescence with caspase-7 pretreated with inhibitor (caspase-7; 10 μM caspase inhibitor): no fluorescence turn-on

C[Si]1(C)C(c2ccc(CN=[N+]=[N-])cc2)=C(c2ccccc2)C(c2ccccc2)=C1c1ccc(CN=[N+]=[N-])cc1 [BATPS, 1,1-dimethyl-2,5-bis[4-(azidomethyl)phenyl]-3,4-diphenylsilole]
average diameter of nanoaggregates in water (LLS) [1]: 103 nm

ClCc1ccc(C2=c3cc4c5c(c3Oc3c2cc2c6c3CCCN6CCC2)CCC[N+]=5CCC4)cc1.[Cl-] [MTR]
time over which fluorescence in treated cells is sustained / detectable (MCF-7 cancer cells): 1 days

C[Si]1(C)C(c2ccc(Cn3cc(C[C@@H]4NC(=O)[C@@H](Cc5ccccc5)NC(=O)[C@H](CC(=O)O)NC(=O)CNC(=O)[C@H](CCCNC(=N)N)NC4=O)nn3)cc2)=C(c2ccccc2)C(c2ccccc2)=C1c1ccc(Cn2cc(C[C@@H]3NC(=O)[C@@H](Cc4ccccc4)NC(=O)[C@H](CC(=O)O)NC(=O)CNC(=O)[C@H](CCCNC(=N)N)NC3=O)nn2)cc1 [TPS-2cRGD]
average diameter of nanoaggregates in water (LLS) [1]: no detectable signal
solubility in water [1, 10]: good solubility in water
fluorescence enhancement on incubation with integrin αvβ3 (human integrin αvβ3; 10 μM probe, integrin 0 to 100 μg mL^−1): up to a seven-fold fluorescence enhancement
limit of detection for integrin αvβ3 in solution (human integrin αvβ3; three times the standard deviation): 4 µg/mL
fluorescent signal of live cells (CLSM) [4]: very weak fluorescence
fluorescent signal of live cells (CLSM) ([5]; 2 μM, 30 min, 4° C.): strong fluorescent signal
fluorescent signal after pre-treatment with free cyclic RGD peptide ([5]; 10 μM cyclic RGD peptide, then 2 μM probe): significantly reduced
incubation time after which the probe is gradually internalized within cells (HT-29 cells): > 25 min
change of PL intensity with other proteins [6]: very little change of PL intensity
viability [7]: ~100%

E-TPE-2DEVD: stereoisomer of Asp-Glu-Val-Asp (DEVD) peptide-conjugated TPE probe (TPE-2DEVD)
solubility in water [1, 10]: good solubility in water
fluorescence turn-on with caspase-3 (caspase-3 [8]): strong fluorescence signals
rate of enzyme activated hydrolysis (HPLC) (caspase-3 [8]): faster

Z-TPE-2DEVD: stereoisomer of Asp-Glu-Val-Asp (DEVD) peptide-conjugated TPE probe (TPE-2DEVD)
solubility in water [1, 10]: good solubility in water
fluorescence turn-on with caspase-3 (caspase-3 [8]): stronger fluorescence enhancement
rate of enzyme activated hydrolysis (HPLC) (caspase-3 [8]): slower hydrolysis rate
probe selectivity, changes in (I−I0)/I0 [9]: specific probe for caspase-3
